Measured values published in PMC9097457 (The Journal of Biological Chemistry, 2022).
Counter-ions that a name gives are not always drawn. Values belong to the compound of their own block, whether it stands above or below them.

What was measured:
[1] = tested on: heart mitochondria; experiment: Conversion of [3H]-dGMP to [3H]-dGTP in isolated heart mitochondria; type: biochemical, rat
Procedure: (§1) Thus, we were interested in determining if the dGTP and dATP phosphorylation pathway in isolated mitochondria functioned similarly.
(§2) [^3H]-dGMP (1 μM) or [^3H]-dAMP (1 μM) was incubated in heart mitochondria as described for Figure 1 for the times shown, and their conversion to [^3H]-dGTP and [^3H]-dATP, respectively, determined in the presence and absence of Ap5A ([…]), a competitive inhibitor of adenylate kinase. Data are shown as a box plot of two independent experiments. The thickness of the lines indicates the spread of the duplicates. Ap5A, P1,P5-di(adenosine-5) pentaphosphate pentasodium salt.
(§3) To measure and compare phosphorylation and kinetics, a stable substrate concentration was necessary and EHNA (5 μM) ([50]) and I-H (2.0 μM) ([49]) were added to all mitochondrial incubations. […] The mitochondria were incubated in vitro for up to 2 h at 37 °C in a shaker bath. At the end of the incubation, reactions were terminated by addition of 10% TCA to an equal volume of incubation mixture (175 μl) and spun in a microcentrifuge to remove precipitates. The supernatant was neutralized with AG 11 A8 resin and filtered through a 0.2-μM nylon syringe filter. The neutralized and filtered supernatants were analyzed by ultra high pressure liquid chromatography (UPLC). Radioactivity was determined from aliquots of each sample and processed through a Beckman Coulter multipurpose liquid scintillation counter (model 6500).

[2] = tested on: adenylate kinase; experiment: Conversion of [3H]-dAMP to [3H]-dATP in isolated heart mitochondria; type: biochemical, rat
Procedure: as §1, §2
as §3, with “The supernatant was neutralized with AG 11 A8 resin and filtered through a 0.2-μM nylon syringe filter.” left out

[3] = target: T1, deoxyguanosine kinase (dGK) (Rattus norvegicus, UniProt A0A0G2K478); experiment: Tissue-specific phosphorylation of [3H]-dG, [3H]-dA and [3H]-ETV in isolated mitochondria; type: biochemical; details: heart mitochondria
T1 sequence (A0A0G2K478 with tags, fused parts or gaps): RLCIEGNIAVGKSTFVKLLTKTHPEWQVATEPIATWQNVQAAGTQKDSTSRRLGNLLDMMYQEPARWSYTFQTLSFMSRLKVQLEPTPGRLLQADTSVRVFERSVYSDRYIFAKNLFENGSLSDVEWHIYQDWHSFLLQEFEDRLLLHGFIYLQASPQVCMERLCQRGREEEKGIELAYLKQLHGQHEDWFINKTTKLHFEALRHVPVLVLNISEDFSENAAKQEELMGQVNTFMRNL
Procedure: As noted in the Experimental procedures, these were added together to determine total phosphorylation.
as §3
(§4) Extent of phosphorylation was measured and analyzed by UPLC (Agilent 1290) with a reverse-phase C18 column (Zorbax Eclipse Plus C18; 3.0 × 150 mm, 1.8 micron) coupled with an inline diode array to detect UV signal at 254 nm and to an inline liquid scintillation counter (β-Ram) to quantitate radioactivity.
(§5) The radioactivity in each of these peaks was quantitated and totaled to provide the total amount of radioactivity in the phosphorylated products for each labeled precursor. This total was divided by the specific radioactivity of the precursor and expressed as pmol/mg protein/hr. The Kms were calculated from Lineweaver–Burk plots 1/Vo=Km/Vmax[S]+1/Vmax

[4] = target: T2, adenosine deaminase (ADA) (Rattus norvegicus, UniProt Q920P6)
T2 sequence (Q920P6 1-352): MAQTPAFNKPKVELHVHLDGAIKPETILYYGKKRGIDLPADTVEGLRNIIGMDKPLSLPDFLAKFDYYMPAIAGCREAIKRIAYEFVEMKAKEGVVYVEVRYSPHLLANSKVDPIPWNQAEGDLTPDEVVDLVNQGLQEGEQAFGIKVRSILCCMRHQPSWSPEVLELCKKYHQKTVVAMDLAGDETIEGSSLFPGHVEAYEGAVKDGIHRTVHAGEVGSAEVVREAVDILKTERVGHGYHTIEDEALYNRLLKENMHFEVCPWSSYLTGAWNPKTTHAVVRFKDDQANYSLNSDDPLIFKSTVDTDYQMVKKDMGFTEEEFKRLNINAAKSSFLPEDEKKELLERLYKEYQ

[5] = tested on: isolated rat heart; experiment: Phosphorylation of [3H]-ETV, [3H]-dG and [3H]-dA in the isolated perfused rat heart (Langendorff)
Procedure: The phosphorylation of [^3H]-dG, [^3H]-dA, and [^3H]-ETV in isolated mitochondria depends on the activity of the mitochondrial dGK. To determine the degree of phosphorylation in a whole tissue, which would include the activity of the cytosolic dCK, we utilized an isolated rat heart Langendorff retrograde perfusion model. The breakdown and phosphorylation of [^3H]-ETV, [^3H]-dG, and [^3H]-dA (0.5 μM each) was measured in the perfusates and in the hearts after 60 min of perfusion (Fig. 9, A and B). […] However, the heart was still able to take up and maintain a small amount of dG to generate 0.18 ± 0.05 pmol/mg wet heart of phosphorylated dG during the 60-min perfusion. […] Despite the loss of [^3H]-dA from the perfusate, the heart took up and maintained enough dA to produce 0.48 ± 0.08 pmol/mg wet heart of phosphorylated [^3H]-dA products at 60 min (Fig. 9B). […] Note that [^3H]-dG and [^3H]-dG catabolites equilibrate rapidly between the perfusion buffer and the heart, while the phosphorylated forms of [^3H]-dG are retained solely in the heart tissue.
Figure 9 [^3H]-ETV and [^3H]-dG phosphorylation in a perfused rat heart. Rat hearts were removed and perfused using the Langendorff method for 1 h as described in Experimental procedures with 0.5 μM [^3H]-ETV, 0.5 μM [^3H]-dG), or 0.5 μM [^3H]-dA. […] A, the amount of exogenous [^3H]-parent compound in the perfusate as a function of time, plotted as a box plot of three independent experiments. See text for details. B, the amount of phosphorylated [^3H]-ETV, [^3H]-dG, or [^3H]-dA in the heart tissue after 60 min of perfusion with additions as noted in (A). See text for details.
Rat hearts were perfused by Langendorff retrograde perfusion apparatus with [^3H]-dG, [^3H]-dA, or [^3H]-ETV for 60 min under the conditions previously described ([25], [26], [51]). Perfused hearts were snap frozen into wafers by clamping the heart in liquid nitrogen, and the frozen tissue wafers were stored in −80 °C until processed as previously described for ([24]) UPLC analysis.

[6] = target: T1, deoxyguanosine kinase (dGK); experiment: Inhibition of [3H]-dA phosphorylation by competing deoxynucleosides in liver mitochondria; type: biochemical; details: IC50 values at 1 μM substrate
Procedure: as §3, §5

[7] = target: T1, deoxyguanosine kinase (dGK); experiment: Kinetic analysis of [3H]-dG and [3H]-ETV phosphorylation and cross inhibition in heart mitochondria; type: biochemical; details: 40 μM ETV, data of Figure 4
Procedure: as §3, §5

[8] = target: T3, purine nucleoside phosphorylase (PNP) (Rattus norvegicus, UniProt P85973); details: 2.0 μM, kidney mitochondria, 60 min
T3 sequence (P85973 1-289): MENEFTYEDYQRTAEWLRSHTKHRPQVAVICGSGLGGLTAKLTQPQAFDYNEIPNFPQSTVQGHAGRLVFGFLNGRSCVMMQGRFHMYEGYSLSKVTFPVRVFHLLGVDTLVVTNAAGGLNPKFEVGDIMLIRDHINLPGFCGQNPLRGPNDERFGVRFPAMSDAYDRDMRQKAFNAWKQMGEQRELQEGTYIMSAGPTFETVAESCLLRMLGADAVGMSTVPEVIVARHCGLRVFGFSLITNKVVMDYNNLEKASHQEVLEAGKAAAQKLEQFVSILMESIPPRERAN

[9] = tested on: isolated rat heart; experiment: Breakdown of the [3H]-parent compound in the perfusate of the isolated perfused rat heart; type: in vitro ADME
Procedure: To determine the degree of phosphorylation in a whole tissue, which would include the activity of the cytosolic dCK, we utilized an isolated rat heart Langendorff retrograde perfusion model.
See text for details. […] See text for details.
Perfused hearts were snap frozen into wafers by clamping the heart in liquid nitrogen, and the frozen tissue wafers were stored in −80 °C until processed as previously described for ([24]) UPLC analysis.

[10] = target: T1, deoxyguanosine kinase (dGK); experiment: Pilot study: effect of 100 μM dG/dA nucleoside analogs on [3H]-dG or [3H]-dA phosphorylation in isolated mitochondria; type: biochemical; details: 100 μM analog; [3H]-dG 0.5 μM in liver, kidney, heart, brain mitochondria; [3H]-dA in liver mitochondria; 2 h; + EHNA 5 μM, I-H 2 μM
Procedure: Immucillin-H (I-H) (2 μM) and EHNA (5 μM) were added to the incubation mixture to prevent the breakdown of substrate by purine nucleoside phosphorylase (PNP) and adenosine deaminase (ADA) activity, respectively.
as §3, §4, §5

effect on conversion of [3H]-dAMP to [3H]-dATP ([2]; Ap5A 40 μM): inhibited
Compound: Nc1ncnc2c1ncn2[C@@H]1O[C@H](COP(=O)([O-])OP(=O)([O-])OP(=O)([O-])OP(=O)([O-])OP(=O)([O-])OC[C@H]2O[C@@H](n3cnc4c(N)ncnc43)[C@H](O)[C@@H]2O)[C@@H](O)[C@H]1O.[Na+].[Na+].[Na+].[Na+].[Na+] [Ap5A, P1,P5-di(adenosine-5) pentaphosphate pentasodium salt]
effect on phosphorylation of dGMP ([1]; Ap5A 40 μM): not inhibited

Compound: CCCCCCC(C(C)O)n1cnc2c(N)ncnc21.Cl (stereo not drawn) [EHNA, erythro-9-(2-Hydroxy-3-nonyl)-adenine hydrochloride]
effect on [3H]-dA or [3H]-dG phosphorylation [3]: no effect
effect on conversion of [3H]-dA to breakdown products ([4]; EHNA 5 μM, 60 min): completely prevented this conversion

inhibition of dA phosphorylation more potent than ETV inhibition of dG phosphorylation [6]: 500 fold
rate of [3H]-dG phosphorylation to [3H]-dGTP in the presence of inhibitor [7]: 12.4 ± 2.0 pmol/mg protein/hr
Compound: C=C1[C@H](CO)[C@@H](O)C[C@@H]1n1cnc2c(=O)[nH]c(N)nc21 [ETV, entecavir]
phosphorylated product in heart ([5]; 0.5 μM labeled compound alone, 60-min perfusion): 0.25 ± 0.05 pmol/mg wet heart
inhibition of [3H]-dG phosphorylation ([5]; 100 μM unlabeled ETV added to [3H]-dG + I-H, 60-min perfusion): 82.0 ± 0.7%
effect on [3H]-dA phosphorylation ([5]; ETV 100 μM added to the perfusate): did not appear to inhibit
effect on conversion of [3H]-dGMP to [3H]-dGTP ([1]; ETV 40 μM): no effect

Compound: O=c1[nH]cnc2c([C@@H]3N[C@H](CO)[C@@H](O)[C@H]3O)c[nH]c12 [I-H, forodesine hydrochloride]
effect on conversion of [3H]-dG to breakdown products [8]: completely prevented this conversion
effect on [3H]-dA or [3H]-dG phosphorylation [3]: no effect
effect on breakdown of dG in the perfusate ([9]; I-H 2 μM): prevented most of the breakdown
effect on [3H]-dA breakdown ([4]; Immucillin-H 2.0 μM, 60 min): no effect

Compound: CC(C)OC(=O)OCOP(=O)(CO[C@H](C)Cn1cnc2c(N)ncnc21)OCOC(=O)OC(C)C.O=C(O)/C=C/C(=O)O [TDF, tenofovir disproxil fumarate]
inhibition of the phosphorylation of dA and dG [10]: ETV was shown to be the only dG/dA analog of the eight tested that showed significant inhibition

Compound: Nc1ncnc2c1ncn2CCOCP(=O)(O)O [adefovir]
inhibition of the phosphorylation of dA and dG [10]: ETV was shown to be the only dG/dA analog of the eight tested that showed significant inhibition

parent compound in the perfusate by 60 min ([9]; 0.5 μM [3H]-dA, EHNA added): complete loss
parent compound remaining in the perfusate by 3 min ([9]; 0.5 μM [3H]-dA, EHNA added): 47.5%
parent compound in the perfusate by 3 min ([9]; 0.5 μM [3H]-dA, in the presence of I-H): completely lost
stability in heart mitochondria ([4]; heart mitochondria, initial studies): stable
conversion of [3H]-dA to breakdown products ([4]; mitochondria isolated from kidney, 60 min, no inhibitor): 28%
Compound: Nc1ncnc2c1ncn2[C@H]1C[C@H](O)[C@@H](CO)O1 [dA, deoxyadenosine]
phosphorylated [3H]-dA products in heart ([5]; 0.5 μM [3H]-dA, I-H and EHNA in the perfusate, 60 min): 0.48 ± 0.08 pmol/mg wet heart

time to complete conversion to [3H]-dATP ([2]; 1 μM): ≤ 10 min
Compound: Nc1ncnc2c1ncn2[C@H]1C[C@H](O)[C@@H](COP(=O)(O)O)O1 [dAMP]

Compound: Nc1nc2c(ncn2[C@H]2C[C@H](O)[C@@H](COP(=O)(O)O)O2)c(=O)[nH]1 [dGMP]
plateau, complete conversion of [3H]-dGMP to [3H]-dGTP ([1]; 1 μM): 123 ± 1 pmol/mg protein
conversion to [3H]-dGTP at the 30-min time point ([1]; 1 μM precursor): 106 ± 4 pmol/mg protein
conversion of dGMP to dGTP faster than conversion of dG to dGTP ([1]; 30 min): 4.6 times

Compound: Nc1nc2c(ncn2[C@H]2CC[C@@H](CO)O2)c(=O)[nH]1 [dideoxyguanosine]
inhibition of the phosphorylation of dA and dG [10]: ETV was shown to be the only dG/dA analog of the eight tested that showed significant inhibition

Compound: Nc1nc(O)c2ncn(COC(CO)CO)c2n1 [ganciclovir]
inhibition of the phosphorylation of dA and dG [10]: ETV was shown to be the only dG/dA analog of the eight tested that showed significant inhibition

Compound: Nc1nc(=O)c2ncn([C@@H]3C[C@H](CO)[C@H]3CO)c2[nH]1 [lobucavir]
inhibition of the phosphorylation of dA and dG [10]: ETV was shown to be the only dG/dA analog of the eight tested that showed significant inhibition

Compound: Nc1nc2c(ncn2CCC(CO)CO)c(=O)[nH]1 [penciclovir]
inhibition of the phosphorylation of dA and dG [10]: ETV was shown to be the only dG/dA analog of the eight tested that showed significant inhibition

Compound: C[C@H](Cn1cnc2c(N)ncnc21)OCP(=O)(O)O [tenofovir]
inhibition of the phosphorylation of dA and dG [10]: ETV was shown to be the only dG/dA analog of the eight tested that showed significant inhibition
